Patent publication US8592383B2, “Cycloalkyl-fused tetrahydroquinolines as CRTH2 receptor modulators” (Merck Sharp & Dohme Corp., priority 2011, dated 2013)

molecular target: T1, hCRTH2 (Homo sapiens, UniProt Q9Y5Y4); design: expressed in transfected cells; host or cells: HEK (human embryonic kidney) cells expressing hCRTH2; settings: Radioligand Binding Assay B; 0.7 nM [3H]PGD2, HEK-hCRTH2 membranes
T1 sequence (Q9Y5Y4 1-395): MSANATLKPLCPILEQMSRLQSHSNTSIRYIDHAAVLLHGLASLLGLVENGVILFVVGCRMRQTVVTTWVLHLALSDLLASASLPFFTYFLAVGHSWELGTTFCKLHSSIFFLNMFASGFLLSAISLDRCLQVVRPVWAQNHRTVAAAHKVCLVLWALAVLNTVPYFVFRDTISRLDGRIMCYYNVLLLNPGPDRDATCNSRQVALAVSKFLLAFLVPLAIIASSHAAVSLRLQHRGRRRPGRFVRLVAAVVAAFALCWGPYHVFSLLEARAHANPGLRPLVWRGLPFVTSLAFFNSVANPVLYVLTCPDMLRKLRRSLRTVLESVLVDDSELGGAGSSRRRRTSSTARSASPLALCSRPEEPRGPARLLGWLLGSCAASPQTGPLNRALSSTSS
Procedure: The filters were then washed with 4 mL of the same buffer and residual radioligand bound to the filter was determined by liquid scintillation counting following equilibration in 25 μl Ultima Gold F™ (Unifilter) (Packard).

Structure (SMILES) | Ki [nM]
O=C(O)CCC(=O)N(C1CC1)C1c2ccccc2N(C(=O)Oc2ccccc2)C2CCCC21 (racemic) [21K, 4-{cyclopropyl[cis, cis-4-(phenoxycarbonyl)-2,3,3a,4,9,9a-hexahydro-1H-cyclopenta[b]quinolin-9-yl]amino}-4-oxobutanoic acid] | 905
CC(CC(=O)N(C1CC1)C1c2ccccc2N(C(=O)OCc2ccccc2)C2CCCC21)C(=O)O (racemic) [compound 10, 4-[{cis,cis-4-[(Benzyloxy)carbonyl]-2,3,3a,4,9,9a-hexahydro-1H-cyclopenta[b]quinolin-9-yl}(cyclopropyl)amino]-2-methyl-4-oxobutanoic acid] | 514
O=C(O)CCC(=O)N(C1CC1)[C@@H]1c2ccc(F)cc2N(C(=O)OCc2ccccc2)[C@@H]2CCC[C@@H]21 (racemic) [compound 16, 4-[{cis,cis-4-[(Benzyloxy)carbonyl]-6-fluoro-2,3,3a,4,9,9a-hexahydro-1H-cyclopenta[b]quinolin-9-yl}(cyclopropyl)amino]-4-oxobutanoic acid] | 2.7

same assay, conditions: Radioligand Binding Assay B; Table B, rated A-D

Structure (SMILES) | Ki [nM]
CC(OC(=O)N1c2ccccc2C(N(C(=O)CCC(=O)O)C2CC2)C2CCCC21)c1ccccc1 (racemic) [21F, 4-(cyclopropyl{cis, cis-4-[(1-phenylethoxy)carbonyl]-2,3,3a,4,9,9a-hexahydro-1H-cyclopenta[b]quinolin-9-yl}amino)-4-oxobutanoic acid] | 20.1 to 200
O=C(O)CCC(=O)N(C1CC1)C1c2ccccc2N(C(=O)OCc2ccccn2)C2CCCC21 (racemic) [21G, 4-(cyclopropyl{cis, cis-4-[(pyridin-2-ylmethoxy)carbonyl]-2,3,3a,4,9,9a-hexahydro-1H-cyclopenta[b]quinolin-9-yl}amino)-4-oxobutanoic acid] | 20.1 to 200
CC(C)(C)COC(=O)N1c2ccccc2C(N(C(=O)CCC(=O)O)C2CC2)C2CCCC21 (racemic) [21H, 4-(cyclopropyl{cis, cis-4-[(2,2-dimethylpropoxy)carbonyl]-2,3,3a,4,9,9a-hexahydro-1H-cyclopenta[b]quinolin-9-yl}amino)-4-oxobutanoic acid] | 201 to 7500
O=C(O)CCC(=O)N(C1CC1)C1c2ccccc2N(C(=O)OCc2ccncc2)C2CCCC21 (racemic) [21J, 4-(cyclopropyl{cis, cis-4-[(pyridin-4-ylmethoxy)carbonyl]-2,3,3a,4,9,9a-hexahydro-1H-cyclopenta[b]quinolin-9-yl}amino)-4-oxobutanoic acid] | 201 to 7500
O=C(O)CCC(=O)N(C1CC1)C1c2ccccc2N(C(=O)Oc2ccccc2)C2CCCC21 (racemic) [21K, 4-{cyclopropyl[cis, cis-4-(phenoxycarbonyl)-2,3,3a,4,9,9a-hexahydro-1H-cyclopenta[b]quinolin-9-yl]amino}-4-oxobutanoic acid] | 201 to 7500
O=C(O)CCC(=O)N(C1CC1)C1c2ccccc2N(C(=O)OCc2ccc(Cl)c(Cl)c2)C2CCCC21 (racemic) [21L, 4-{cyclopropyl[cis, cis-4-{[(3,4-dichlorobenzyl)oxy]carbonyl}-2,3,3a,4,9,9a-hexahydro-1H-cyclopenta[b]quinolin-9-yl]amino}-4-oxobutanoic acid] | 20.1 to 200
O=C(O)CCC(=O)N(C1CC1)C1c2ccccc2N(C(=O)OCC2CC2)C2CCCC21 (racemic) [21i, 4-(cyclopropyl{cis, cis-4-[(cyclopropylmethoxy)carbonyl]-2,3,3a,4,9,9a-hexahydro-1H-cyclopenta[b]quinolin-9-yl}amino)-4-oxobutanoic acid] | 20.1 to 200
O=C(O)CCC(=O)N(C1CC1)C1c2ccccc2N(C(=O)n2ccnc2)C2CCCC21 (racemic) [23B, 4-{cyclopropyl[cis, cis-4-(1H-imidazol-1-ylcarbonyl)-2,3,3a,4,9,9a-hexahydro-1H-cyclopenta[b]quinolin-9-yl]amino}-4-oxobutanoic acid] | 20.1 to 200
O=C(O)CCC(=O)N(C1CC1)C1c2ccccc2N(C(=O)NCc2ccccc2)C2CCCC21 (racemic) [23C, 4-{[cis, cis-4-(benzylcarbamoyl)-2,3,3a,4,9,9a-hexahydro-1H-cyclopenta[b]quinolin-9-yl](cyclopropyl)amino}-4-oxobutanoic acid] | 20.1 to 200
CN(C(=O)N1c2ccccc2C(N(C(=O)CCC(=O)O)C2CC2)C2CCCC21)c1ccccc1 (racemic) [23D, 4-(cyclopropyl{cis, cis-4-[methyl(phenyl)carbamoyl]-2,3,3a,4,9,9a-hexahydro-1H-cyclopenta[b]quinolin-9-yl}amino)-4-oxobutanoic acid] | 20.1 to 200
O=C(O)CCC(=O)N(C1CC1)C1c2ccccc2N(S(=O)(=O)c2ccc(OC(F)(F)F)cc2)C2CCCC12 (racemic) [24D, 4-[cyclopropyl[cis,cis-2,3,3a,4,9,9a-hexahydro-4-[[4-(trifluoromethoxy)phenyl]sulfonyl]-1H-cyclopenta[b]quinolin-9-yl]amino]-4-oxobutanoic acid] | 20.1 to 200
O=C(O)CCC(=O)N(C1CC1)C1c2ccccc2N(c2nnc(-c3ccccc3)o2)C2CCCC21 (racemic) [36A, racemic 4-{cyclopropyl[cis, cis-4-(5-phenyl-1,3,4-oxadiazol-2-yl)-2,3,3a,4,9,9a-hexahydro-1H-cyclopenta[b]quinolin-9-yl]amino}-4-oxobutanoic acid] | 20.1 to 200
O=C(O)CCC(=O)N(C1CC1)C1c2ccccc2N(c2nnc(-c3ccc(F)cc3)o2)C2CCCC21 (racemic) [36B, racemic 4-(cyclopropyl{cis, cis-4-[5-(4-fluorophenyl)-1,3,4-oxadiazol-2-yl]-2,3,3a,4,9,9a-hexahydro-1H-cyclopenta[b]quinolin-9-yl}amino)-4-oxobutanoic acid] | 20.1 to 200
O=C(O)CCC(=O)N(C1CC1)C1c2ccccc2N(c2nnc(-c3ccc(OC(F)(F)F)cc3)o2)C2CCCC21 (racemic) [36C, racemic 4-{cyclopropyl[cis, cis-4-{5-[4-trifluoro-(methoxy)phenyl]-1,3,4-oxadiazol-2-yl}-2,3,3a,4,9,9a-hexahydro-1H-cyclopenta[b]quinolin-9-yl]amino}-4-oxobutanoic acid] | 201 to 7500
CC(CC(=O)N(C1CC1)C1c2ccccc2N(C(=O)OCc2ccccc2)C2CCCC21)C(=O)O (racemic) [compound 10, 4-[{cis,cis-4-[(Benzyloxy)carbonyl]-2,3,3a,4,9,9a-hexahydro-1H-cyclopenta[b]quinolin-9-yl}(cyclopropyl)amino]-2-methyl-4-oxobutanoic acid] | 201 to 7500
COC(=O)CCC(=O)N(c1ccccc1)[C@@H]1c2ccccc2N(C(=O)OCc2ccccc2)[C@@H]2CCC[C@@H]21 (racemic) [compound 12, Benzyl cis,cis-9-[(4-methoxy-4-oxobutanoyl)(phenyl)amino]-1,2,3,3a,9,9a-hexahydro-4H-cyclopenta[b]quinoline-4-carboxylate] | 201 to 7500
CCN(C(=O)CCC(=O)O)[C@@H]1c2ccccc2N(C(=O)OCc2ccccc2)[C@@H]2CCC[C@H]12 (racemic) [compound 13, 4-[{cis,cis-4-[(Benzyloxy)carbonyl]-2,3,3a,4,9,9a-hexahydro-1H-cyclopenta[b]quinolin-9-yl}(ethyl)amino]-4-oxobutanoic acid] | 5.1 to 20
O=C(O)CCC(=O)N(C1CC1)[C@@H]1c2ccccc2N(C(=O)c2ccccc2)[C@@H]2CCC[C@@H]21 (racemic) [compound 14, 4-[[cis,cis-4-Benzoyl-2,3,3a,4,9,9a-hexahydro-1H-cyclopenta[b]quinolin-9-yl](cyclopropyl)amino]-4-oxobutanoic acid] | 5.1 to 20
COC(=O)CCC(=O)N(C1CC1)C1c2ccc(F)cc2N(C(=O)OCc2ccccc2)C2CCCC21 (racemic) [compound 15, Benzyl cis,cis-9-[cyclopropyl(4-methoxy-4-oxobutanoyl)amino]-6-fluoro-1,2,3,3a,9,9a-hexahydro-4H-cyclopenta[b]quinoline-4-carboxylate] | 20.1 to 200
O=C(O)CCC(=O)N(C1CC1)[C@@H]1c2ccc(F)cc2N(C(=O)OCc2ccccc2)[C@@H]2CCC[C@@H]21 (racemic) [compound 16, 4-[{cis,cis-4-[(Benzyloxy)carbonyl]-6-fluoro-2,3,3a,4,9,9a-hexahydro-1H-cyclopenta[b]quinolin-9-yl}(cyclopropyl)amino]-4-oxobutanoic acid] | 1 to 5
CC(C)OC(=O)N1c2ccccc2C(N(C(=O)CCC(=O)O)C2CC2)C2CCCC21 (racemic) [compound 21, 4-(Cyclopropyl{cis,cis-4-[(1-methylethoxy)carbonyl]-2,3,3a,4,9,9a-hexahydro-1H-cyclopenta[b]quinolin-9-yl}amino)-4-oxobutanoic acid] | 20.1 to 200
O=C(O)CCC(=O)N(C1CC1)[C@@H]1c2ccccc2N(C(=O)N2CCc3ccccc32)[C@@H]2CCC[C@@H]21 (racemic) [compound 23, 4-{Cyclopropyl[cis,cis-4-(2,3-dihydro-1H-indol-1-ylcarbonyl)-2,3,3a,4,9,9a-hexahydro-1H-cyclopenta[b]quinolin-9-yl]amino}-4-oxobutanoic acid] | 20.1 to 200
O=C(O)CCC(=O)N(C1CC1)[C@@H]1c2ccccc2N(S(=O)(=O)c2ccccc2)[C@@H]2CCC[C@H]12 (racemic) [compound 24, 4-[Cyclopropyl[cis,cis-2,3,3a,4,9,9a-hexahydro-4-(phenylsulfonyl)-1H-cyclopenta[b]quinolin-9-yl]amino]-4-oxobutanoic acid] | 20.1 to 200
O=C(O)CCC(=O)N(C1CC1)[C@@H]1c2ccccc2N(C(=O)OCc2ccccc2)[C@@H]2CC[C@@H]21 (racemic) [compound 25, 4-[{cis,cis-3-[(Benzyloxy)carbonyl]-1,2,2a,3,8,8a-hexahydrocyclobuta[b]quinolin-8-yl}(cyclopropyl)amino]-4-oxobutanoic acid] | 20.1 to 200
COC(=O)CCC(=O)N(C1CC1)C1c2ccccc2N(C(=O)c2ccc(OC(F)(F)F)cc2)C2CCC21 (racemic) [compound 26, Methyl 4-{cyclopropyl[cis,cis-3-{[4-(trifluoromethoxy)phenyl]carbonyl}-1,2,2a,3,8,8a-hexahydrocyclobuta[b]quinolin-8-yl]amino}-4-oxobutanoate] | 20.1 to 200
O=C(O)CCC(=O)N(C1CC1)[C@@H]1c2ccccc2N(C(=O)OCc2ccccc2)[C@@H]2CCCC[C@@H]21 (racemic) [compound 28, 4-[{cis,cis-10-[(Benzyloxy)carbonyl]-1,2,3,4,4a,9,9a,10-octahydroacridin-9-yl}(cyclopropyl)amino]-4-oxobutanoic acid] | 20.1 to 200
